What was measured:
[1] = test system: cancer cell; assay: Cell viability assay (resazurin); assay type: cell-based; conditions: 72 h; 3 days with compound, resazurin fluorescence; cell line not named
Procedure: The utility of the compounds of the present invention can be illustrated, for example, by their activity in vitro in the cancer cell clonogenic and/or viability assay described below. The link between activity in tumor cell clonogenic assay and anti-tumor activity in the clinical setting has been well established in the art (e.g. see ref Silverstini et al Stem Cells 1993, 11(6), 258-35).
Cells are seeded into 96 well plates (1000-3000 cells/well) in DMEM GlutaMAX™ or other suitable media dependent on cell line and incubated overnight in 5% CO2, 37° C. Thereafter cells are treated with compound or vehicle and left in incubator for 3 days until staining with resazurin. Cells are incubated in resazurin (diluted in suitable media) at 37° C. for 2 hours before measuring the fluorescence (Ex544/Em590).
The compounds to be tested are nano-dispensed in 11 concentrations, directly in 384-well cell plates, with a final DMSO concentration <1%. Cells are seeded in cell plates, pre-dispensed with compounds, 50 μl/well (600-1200 cells/well). After 3 days culture in 5% CO2, 37° C., resazurin diluted in PBS is added, 10 μl/well, and cells are incubated 3 hours before measuring fluorescence (Ex544/Em590).

[2] = target: MTH1 (Homo sapiens, UniProt P36639); assay: MTH1 enzymatic assay and IC50 value determination (malachite green, 96- and 384-well format); assay type: biochemical; conditions: hydrolysis of dGTP (100 μM), MTH1 6 nM, pyrophosphatase-coupled malachite green, 15 minutes at 22° C.
Outline: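 MTH1 (6 nM) hydrolysed dGTP (100 μM) for 15 min at 22 °C in Tris-acetate buffer with Mg2+, DTT, Tween 20 and excess pyrophosphatase, 1% DMSO. Pi detected with malachite green at 630 nm. IC50 from nonlinear 4-parameter fit of 11–12-point dilution series.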

SMILES	IC50 [1]	IC50 [2]
Cc1c(Cl)cccc1-c1cc(NCCc2ccc(NS(=O)(=O)CC(C)C)cc2)nc(N)n1 [Example 87, N-[4-(2-{[2-amino-6-(3-chloro-2-methylphenyl)pyrimidin-4-yl]amino}ethyl)phenyl]-2-methylpropane-1-sulfonamide]	< 0.5 µM	< 0.2 µM
CNC(=O)c1ccc(CCNc2cc(-c3cccc(Cl)c3C)nc(N)n2)cc1 [Example 89, 4-[2-[[2-amino-6-(3-chloro-2-methyl-phenyl)pyrimidin-4-yl]amino]ethyl]-N-methyl-benzamide]	< 0.5 µM	< 0.2 µM
Cc1c(Cl)cccc1-c1cc(NCCc2ccc(C(=O)N3CCCC3)cc2)nc(N)n1 [Example 90, [4-[2-[[2-amino-6-(3-chloro-2-methyl-phenyl)pyrimidin-4-yl]amino]ethyl]phenyl]-pyrrolidin-1-yl-methanone]	< 0.5 µM	< 0.2 µM
Cc1c(Cl)cccc1-c1cc(NCCNc2ccc3c(c2)OCC(=O)N3)nc(N)n1 [Example 91, 7-[2-[[2-amino-6-(3-chloro-2-methyl-phenyl)pyrimidin-4-yl]amino]ethylamino]-4H-1,4-benzoxazin-3-one]	< 0.5 µM	< 0.2 µM
Cc1c(Cl)cccc1-c1cc(NCCNc2ccc3c(c2)N(C)C(=O)CO3)nc(N)n1 [Example 92, 6-[2-[[2-amino-6-(3-chloro-2-methyl-phenyl)pyrimidin-4-yl]amino]ethylamino]-4-methyl-1,4-benzoxazin-3-one]	< 0.5 µM	< 0.2 µM
Cc1c(Cl)cccc1-c1cc(NCCc2cccc([N+](=O)[O-])c2)nc(N)n1 [Example 95, 6-(3-chloro-2-methylphenyl)-4-N-[2-(3-nitrophenyl)ethyl]pyrimidine-2,4-diamine]	< 0.5 µM	< 0.2 µM
Cc1cccc(-c2cc(NCCc3ccc(S(N)(=O)=O)cc3)nc(N)n2)c1Cl [Example 96, 4-[2-[[2-amino-6-(2-chloro-3-methyl-phenyl)pyrimidin-4-yl]amino]ethyl]benzenesulfonamide]	< 0.5 µM	< 0.2 µM
Nc1nc(NCCc2ccc(S(N)(=O)=O)cc2)cc(-c2cc(Cl)cc(Cl)c2Cl)n1 [Example 97, 4-[2-[[2-amino-6-(2,3,5-trichlorophenyl)pyrimidin-4-yl]amino]ethyl]benzenesulfonamide]	< 0.5 µM	< 0.2 µM
Cc1nc2ccc(NCCNc3cc(-c4cccc(Cl)c4C)nc(N)n3)cc2s1 [Example 101, 6-(3-chloro-2-methyl-phenyl)-N4-[2-[(2-methyl-1,3-benzothiazol-6-yl)amino]ethyl]pyrimidine-2,4-diamine]	< 0.5 µM	< 0.2 µM
CC1(C)Nc2cc(NCCNc3cc(-c4cccc(Cl)c4)nc(N)n3)ccc2OC1=O [Example 103, 6-[2-[[2-amino-6-(3-chlorophenyl)pyrimidin-4-yl]amino]ethylamino]-3,3-dimethyl-4H-1,4-benzoxazin-2-one]	< 0.5 µM	< 0.2 µM
CC1(C)Nc2cc(NCCNc3cc(-c4cccc(Cl)c4Cl)nc(N)n3)ccc2OC1=O [Example 104, 6-[2-[[2-amino-6-(2,3-dichlorophenyl)pyrimidin-4-yl]amino]ethylamino]-3,3-dimethyl-4H-1,4-benzoxazin-2-one]	< 0.5 µM	< 0.2 µM
Cc1c(Cl)cccc1-c1cc(NCCNc2cccc(S(C)(=O)=O)c2)nc(N)n1 [Example 105, 6-(3-chloro-2-methyl-phenyl)-N4-[2-(3-methylsulfonylanilino)ethyl]pyrimidine-2,4-diamine]	< 0.5 µM	< 0.2 µM
CS(=O)(=O)c1cccc(NCCNc2cc(-c3cccc(Cl)c3Cl)nc(N)n2)c1 [Example 106, 6-(2,3-dichlorophenyl)-N4-[2-(3-methylsulfonylanilino)ethyl]pyrimidine-2,4-diamine]	< 0.5 µM	< 0.2 µM
Cc1c(Cl)cccc1-c1cc(NCCc2ccc(C(N)=NO)cc2)nc(N)n1 [Example 107, 4-[2-[[2-amino-6-(3-chloro-2-methyl-phenyl)pyrimidin-4-yl]amino]ethyl]-N′-hydroxy-benzamidine]	< 0.5 µM	< 0.2 µM
Cc1c(Cl)cccc1-c1cc(NCCc2ccc(C(=O)N3CCOCC3)cc2)nc(N)n1 [Example 108, [4-[2-[[2-amino-6-(3-chloro-2-methyl-phenyl)pyrimidin-4-yl]amino]ethyl]phenyl]-morpholino-methanone]	< 0.5 µM	< 0.2 µM
Cc1c(Cl)cc(Cl)cc1-c1cc(NCCc2ccc(C(=O)N3CCOCC3)cc2)nc(N)n1 [Example 109, [4-[2-[[2-amino-6-(3,5-dichloro-2-methyl-phenyl)pyrimidin-4-yl]amino]ethyl]phenyl]-morpholino-methanone]	< 0.5 µM	< 0.2 µM
Cc1c(Cl)cccc1-c1cc(NCCCNc2cccc(S(C)(=O)=O)c2)nc(N)n1 [Example 110, 6-(3-chloro-2-methyl-phenyl)-N4-[3-(3-methylsulfonylanilino)propyl]pyrimidine-2,4-diamine]	< 0.5 µM	< 0.2 µM
Cc1c(Cl)cccc1-c1cc(NCCc2ccc(C(N)=S)cc2)nc(N)n1 [Example 111, 4-[2-[[2-amino-6-(3-chloro-2-methyl-phenyl)pyrimidin-4-yl]amino]ethyl]benzenecarbothioamide]	< 0.5 µM	< 0.2 µM
CCNC(=O)Nc1ccc(CCNc2cc(-c3cccc(Cl)c3C)nc(N)n2)cc1 [Example 112, 1-[4-[2-[[2-amino-6-(3-chloro-2-methyl-phenyl)pyrimidin-4-yl]amino]ethyl]phenyl]-3-ethyl-urea]	< 0.5 µM	< 0.2 µM
Cc1c(Cl)cccc1-c1cc(NCCc2ccc(NC(=O)NC(C)(C)C)cc2)nc(N)n1 [Example 113, 1-[4-[2-[[2-amino-6-(3-chloro-2-methyl-phenyl)pyrimidin-4-yl]amino]ethyl]phenyl]-3-tert-butyl-urea]	< 0.5 µM	< 0.2 µM
C=CCNC(=O)Nc1ccc(CCNc2cc(-c3cccc(Cl)c3C)nc(N)n2)cc1 [Example 114, 1-allyl-3-[4-[2-[[2-amino-6-(3-chloro-2-methyl-phenyl)pyrimidin-4-yl]amino]ethyl]phenyl]urea]	< 0.5 µM	< 0.2 µM
CCOC(=O)NC(=O)Nc1ccc(CCNc2cc(-c3cccc(Cl)c3C)nc(N)n2)cc1 [Example 115, ethyl N-[[4-[2-[[2-amino-6-(3-chloro-2-methyl-phenyl)pyrimidin-4-yl]amino]ethyl]phenyl]carbamoyl]carbamate]	< 0.5 µM	< 0.2 µM
CCC(C)NC(=O)Nc1ccc(CCNc2cc(-c3cccc(Cl)c3C)nc(N)n2)cc1 (stereo not drawn) [Example 116, 1-[4-[2-[[2-amino-6-(3-chloro-2-methyl-phenyl)pyrimidin-4-yl]amino]ethyl]phenyl]-3-sec-butyl-urea]	< 0.5 µM	< 0.2 µM
CCNC(=S)Nc1ccc(CCNc2cc(-c3cccc(Cl)c3C)nc(N)n2)cc1 [Example 117, 1-[4-[2-[[2-amino-6-(3-chloro-2-methyl-phenyl)pyrimidin-4-yl]amino]ethyl]phenyl]-3-ethyl-thiourea]	< 0.5 µM	< 0.2 µM
Cc1c(Cl)cccc1-c1cc(NCCc2ccc(NC(=O)N3CCOCC3)cc2)nc(N)n1 [Example 118, N-[4-[2-[[2-amino-6-(3-chloro-2-methyl-phenyl)pyrimidin-4-yl]amino]ethyl]phenyl]morpholine-4-carboxamide]	< 0.5 µM	< 0.2 µM
Cc1c(Cl)cccc1-c1cc(NCCc2ccc(NC(=O)OC(C)C)cc2)nc(N)n1 [Example 119, isopropyl N-[4-[2-[[2-amino-6-(3-chloro-2-methyl-phenyl)pyrimidin-4-yl]amino]ethyl]phenyl]carbamate]	< 0.5 µM	< 0.2 µM
Cc1c(Cl)cccc1-c1cc(NCCc2ccc(NC(=O)OCC(C)C)cc2)nc(N)n1 [Example 120, isobutyl N-[4-[2-[[2-amino-6-(3-chloro-2-methyl-phenyl)pyrimidin-4-yl]amino]ethyl]phenyl]carbamate]	< 0.5 µM	< 0.2 µM
Cc1c(Cl)cccc1-c1cc(NCCc2ccc(NC(=O)OCC(C)(C)C)cc2)nc(N)n1 [Example 121, 2,2-dimethylpropyl N-[4-[2-[[2-amino-6-(3-chloro-2-methyl-phenyl)pyrimidin-4-yl]amino]ethyl]phenyl]carbamate]	< 0.5 µM	< 0.2 µM
COCCOC(=O)Nc1ccc(CCNc2cc(-c3cccc(Cl)c3C)nc(N)n2)cc1 [Example 122, 2-methoxyethyl N-[4-[2-[[2-amino-6-(3-chloro-2-methyl-phenyl)pyrimidin-4-yl]amino]ethyl]phenyl]carbamate]	< 0.5 µM	< 0.2 µM
CC#CCOC(=O)Nc1ccc(CCNc2cc(-c3cccc(Cl)c3C)nc(N)n2)cc1 [Example 123, but-2-ynyl N-[4-[2-[[2-amino-6-(3-chloro-2-methyl-phenyl)pyrimidin-4-yl]amino]ethyl]phenyl]carbamate]	< 0.5 µM	< 0.2 µM

— US10179790B2 (THOMAS HELLEDAYS STIFTELSE FOR MEDICINSK FORSKNING, priority 2014, dated 2019)
